Test results reported in ChEMBL document CHEMBL6083285 (J Med Chem, 2024).
pIC50: −log10 of the molar value. ≈ marks a conversion by molar mass, not a printed value.

Assays:
[1] = Inhibition of NLRP3 inflammasome activation mediated pyroptosis in LPS-stimulated human THP-1 cells preincubated for 3 hrs followed by nigericin addition and measured after 1 hrs by resazurin dye based assay; assay type: cell-based
[2] = Inhibition of NLRP3 inflammasome activation in LPS-stimulated human whole blood assessed as reduction in IL-1beta release preincubated for 3 hrs followed by nigericin addition and measured after 1 hrs by Alphalisa method; assay type: tissue-based
[3] = Lipophilicity, logD of compound at pH 7.4; assay type: physicochemical; conditions: buffer
[4] = organism: Homo sapiens; test: Selectivity ratio of IC50 for inhibition of NLRP3 inflammasome activation in LPS-stimulated human whole blood assessed as reduction in IL-1beta release to IC50 for inhibition of NLRP3 inflammasome activation mediated pyroptosis in LPS-stimulated human THP-1 cells
[5] = Kinetic solubility of compound; assay type: physicochemical; conditions: read-out: Kinetic_solubility
[6] = Protein binding in human plasma assessed as unbound fraction at 5 uM incubated for 4 hrs by UPLC-MS analysis; assay type: ADME, cell-free
[7] = Metabolic stability in mouse hepatocytes assessed as intrinsic clearance measured per 10^6 cells at 100 uM incubated upto 60 mins by UPLC-MS/MS analysis; assay type: ADME, cell-based, Hepatocyte; conditions: read-out: CLH
[8] = test system: BCRP; test: Efflux ratio of permeability in MDCK-II-BCRP cells at 5 uM incubated for 2 hrs by LC-MS/MS analysis; assay type: ADME, cell-based, Canis lupus familiaris; conditions: dog
[9] = test system: MDR1; test: Permeability across apical to basolateral side in pig LLC-PK1 cells transfected with MDR1; assay type: ADME, cell-based, Sus scrofa; conditions: read-out: permeability
[10] = Protein binding in mouse plasma assessed as unbound fraction at 5 uM incubated for 4 hrs by UPLC-MS analysis; assay type: ADME, cell-free
[11] = Half-life in male Sprague-Dawley rat at 1 mg/kg, iv measured after 24 hrs by LC-MS analysis; assay type: ADME, organism-based; conditions: in vivo
[12] = Protein binding in rat plasma assessed as unbound fraction at 5 uM incubated for 4 hrs by UPLC-MS analysis; assay type: ADME, cell-free
[13] = AUC (0 to infinity) in male Sprague-Dawley rat at 1 mg/kg, iv measured after 24 hrs by LC-MS analysis; assay type: ADME, organism-based; conditions: in vivo
[14] = test system: BCRP; test: Permeability in MDCK-II-BCRP cells at 5 uM incubated for 2 hrs by LC-MS/MS analysis; assay type: ADME, cell-based, Canis lupus familiaris; conditions: dog, read-out: permeability
[15] = Clearance in male Sprague-Dawley rat at 1 mg/kg, iv measured after 24 hrs by LC-MS analysis; assay type: ADME, organism-based; conditions: in vivo
[16] = test system: MDR1; test: Efflux ratio of permeability in MDCKII-MDR1 cells at 5 uM incubated for 2 hrs by LC-MS/MS analysis; assay type: ADME, cell-based, Canis lupus familiaris; conditions: dog, MDCK-MDR1
[17] = Metabolic stability in human hepatocytes assessed as intrinsic clearance measured per 10^6 cells at 100 uM incubated upto 60 mins by UPLC-MS/MS analysis; assay type: ADME, cell-based, Hepatocyte; conditions: read-out: CLH
[18] = Metabolic stability in pooled mouse liver microsomes assessed as intrinsic clearance at 1 uM measured upto 45 mins in presence of NADPH by UPLC-MS/MS analysis; assay type: ADME, Microsome; conditions: read-out: CLH
[19] = test system: MDR1; test: Efflux ratio of permeability across apical to basolateral side in pig LLC-PK1 cells transfected with MDR1; assay type: ADME, cell-based, Sus scrofa
[20] = Metabolic stability in rat hepatocytes assessed as intrinsic clearance measured per 10^6 cells at 100 uM incubated upto 60 mins by UPLC-MS/MS analysis; assay type: ADME, cell-based, Hepatocyte; conditions: read-out: CLH
[21] = Volume of distribution at steady state in male Sprague-Dawley rat at 1 mg/kg, iv measured after 24 hrs by LC-MS analysis; assay type: ADME, organism-based; conditions: in vivo, read-out: Vdss
[22] = Metabolic stability in pooled rat liver microsomes assessed as intrinsic clearance at 1 uM measured upto 45 mins in presence of NADPH by UPLC-MS/MS analysis; assay type: ADME, Microsome; conditions: read-out: CLH
[23] = test system: MDR1; test: Permeability in MDCKII-MDR1 cells at 5 uM incubated for 2 hrs by LC-MS/MS analysis; assay type: ADME, cell-based, Canis lupus familiaris; conditions: dog, MDCK-MDR1, read-out: permeability
[24] = Binding affinity to NanoLuc-tagged NLRP3 (unknown origin) expressed in HEK293 cells incubated for 2 hrs by NanoBRET assay; assay type: cell-based; conditions: Homo sapiens, HEK293, 2 h
[25] = Metabolic stability in pooled human liver microsomes assessed as intrinsic clearance at 1 uM measured upto 45 mins in presence of NADPH by UPLC-MS/MS analysis; assay type: ADME, Microsome; conditions: read-out: CLH

| SMILES | pIC50 [1] | pIC50 [2] | also measured |
| --- | --- | --- | --- |
| COc1cc(-c2ccc3c(c2NC(=O)NS(=O)(=O)c2cnn(C(C)C)n2)CCC3)ccn1 | 7.24 | 6.09 |  |
| CC(C)c1cc(F)cc2c1CC(=O)NS(=O)(=O)c1cn(nc1F)C(C)(C)COc1cc-2ccn1 | 7.70 | 6.35 |  |
| CC1(C)COc2cc(ccn2)-c2c(F)cc3c(c2NC(=O)NS(=O)(=O)c2nn1cc2F)CCC3 | 8.10 | 6.90 |  |
| CC(C)c1cccc2c1CC(=O)NS(=O)(=O)c1ccn(n1)C(C)(C)COc1cc-2ccn1 | 5.77 |  |  |
| CC(C)n1ccc(S(=O)(=O)NC(=O)Nc2c(-c3ccnc(OC4CCN(C)CC4)c3)ccc3c2CCC3)n1 | 7.34 | 6.36 | logD [3]: -0.02 |
| O=C1Nc2c(ccc3c2CCC3)-c2ccnc(c2)OCCCCCn2ccc(n2)S(=O)(=O)N1 | 6.54 | 5.96 |  |
| Cc1cc2c(c3c1-c1ccnc(c1)OCC(C)(C)n1cc(F)c(n1)S(=O)(=O)NC(=O)N3)CCC2 | 8.40 | 6.99 |  |
| CC(C)n1ccc(S(=O)(=O)NC(=O)Nc2c(-c3ccnc(Oc4ccccc4)c3)ccc3c2CCC3)n1 | 7.23 | 5.23 | Ratio IC50 [4]: 16; logD [3]: 1.2 |
| CC(C)c1cccc2c1CC(=O)NS(=O)(=O)c1cnn(c1)C(C)(C1CC1)COc1cc-2ccn1 (centres undefined) | 7.51 | 6.36 |  |
| CC(C)c1cc(F)cc2c1CC(=O)NS(=O)(=O)c1cnn(c1)C(C)(C)COc1cc-2ccn1 | 7.12 | 6.45 | solubility kinetic [5]: 16.5 µg/mL (≈ 34.9 µM); fraction unbound at 4 h, 5 µM [6]: 0.047; hepatocyte CLint at 100 µM [7]: 21 µL/min/1e6 cells; efflux ratio at 2 h, 5 µM [8]: 6; Papp A→B [9]: 0.39 ×10⁻⁶ cm/s; fraction unbound at 4 h, 5 µM [10]: 0.086; half-life [11]: 1.5 h; fraction unbound at 4 h, 5 µM [12]: 0.036; AUC(0-inf) [13]: 4900 ng·h/mL; Papp at 2 h, 5 µM [14]: 10.9 ×10⁻⁶ cm/s; clearance [15]: 3.5 mL/min/kg; efflux ratio at 2 h, 5 µM [16]: 18; hepatocyte CLint at 100 µM [17]: < 8 µL/min/1e6 cells; microsomal CLint at 1 µM [18]: 35 µL/min/mg; efflux ratio [19]: 2.9; logD [3]: 1.5; hepatocyte CLint at 100 µM [20]: < 8 µL/min/1e6 cells; Vd [21]: 0.4 L/kg; microsomal CLint at 1 µM [22]: < 15.4 µL/min/mg; Papp at 2 h, 5 µM [23]: 10.4 ×10⁻⁶ cm/s |
| CC(C)c1cccc2c1CC(=O)NS(=O)(=O)c1cccc(c1)C(C)(C)COc1cc-2ccn1 | 5.83 |  |  |
| CC(C)c1cccc2c1CC(=O)NS(=O)(=O)c1cnn(c1)C1(CC1)COc1cc-2ccn1 | 6.25 | 6.38 |  |
| CC(C)c1cc(F)cc2c1CC(=O)NS(=O)(=O)c1cnn(c1)C(C)(CO)COc1cc-2ccn1 (centres undefined) | 7.08 | 6.31 |  |
| COc1cc(-c2ccc3c(c2NC(=O)NS(=O)(=O)c2ccnc(C(C)C)c2)CCC3)ccn1 | 7.64 | 5.79 |  |
| CC(C)c1cccc2c1CC(=O)NS(=O)(=O)c1cnn(c1)C1(CCCC1)COc1cc-2ccn1 | 6.98 | 6.30 |  |
| CC(C)c1cccc2c1CC(=O)NS(=O)(=O)c1nn(cc1F)C(C)(C)COc1cc-2ccn1 | 6.32 |  |  |
| COc1cc(-c2ccc3c(c2NC(=O)NS(C)(=O)=O)CCC3)ccn1 | 5.99 |  |  |
| O=C1Nc2c(ccc3c2CCC3)-c2ccnc(c2)OCCCn2ccc(n2)S(=O)(=O)N1 | 6.24 | 6.01 |  |
| CC(C)c1cccc2c1CC(=O)NS(=O)(=O)c1cnn(c1)C(C)(C)COc1cc-2ccn1 | 6.78 | 6.38 |  |

| SMILES | pIC50 [1] | pIC50 [2] | also measured |
| --- | --- | --- | --- |
| CCC1(C)COc2cc(ccn2)-c2cccc(C(C)C)c2CC(=O)NS(=O)(=O)c2cnn1c2 (centres undefined) | 6.56 | 6.62 |  |
| CC(C)c1cccc2c1CC(=O)NS(=O)(=O)c1cnn(c1)C1(CCC1)COc1cc-2ccn1 | 7.28 | 6.69 |  |
| CC(C)(O)c1coc(S(=O)(=O)NC(=O)Nc2c3c(cc4c2CCC4)CCC3)c1 | 7.19 | 6.11 | pIC50 [24]: 6.00 |
| CC(C)c1cc(F)cc2c1CC(=O)NS(=O)(=O)c1cnn(c1)C1(COC1)COc1cc-2ccn1 | 7.08 | 6.49 |  |
| O=C1Nc2c(ccc3c2CCC3)-c2ccnc(c2)OCCn2ccc(n2)S(=O)(=O)N1 | 7.20 | 6.92 |  |
| CC(C)n1ccc(S(=O)(=O)NC(=O)Nc2c(-c3ccnc(OC4CCN(C)C4)c3)ccc3c2CCC3)n1 (centres undefined) | 6.10 |  | logD [3]: -0.5 |
| COc1cc(-c2ccc3c(c2NC(=O)NS(=O)(=O)c2cn(C(C)C)cn2)CCC3)ccn1 | 7.21 | 6.21 |  |
| CC(C)n1ccc(S(=O)(=O)NC(=O)Nc2c(-c3ccnc(OC4CCOCC4)c3)ccc3c2CCC3)n1 | 7.21 | 6.00 | Ratio IC50 [4]: 16; logD [3]: 0.35 |
| COc1cc(-c2ccc3c(c2NC(=O)NS(=O)(=O)c2ccn(C(C)C)n2)CCC3)ccn1 | 7.29 | 6.39 | microsomal CLint at 1 µM [25]: 12 µL/min/mg; logD [3]: 0.09 |
| CC1(C)COc2cc(ccn2)-c2ccc3c(c2NC(=O)NS(=O)(=O)c2ccn1n2)CCC3 | 7.07 | 6.57 |  |
| COc1cc(-c2ccc3c(c2NC(=O)NS(=O)(=O)c2nn(C(C)C)cc2F)CCC3)ccn1 | 8.10 | 6.64 |  |
| O=C1Nc2c(ccc3c2CCC3)-c2ccnc(c2)OCCCCCCn2ccc(n2)S(=O)(=O)N1 | 6.67 | 5.80 |  |
| CC(C)c1cccc2c1CC(=O)NS(=O)(=O)c1cnn(n1)C(C)(C)COc1cc-2ccn1 | 5.78 |  |  |
| O=C1Nc2c(ccc3c2CCC3)-c2ccnc(c2)OCCCCn2ccc(n2)S(=O)(=O)N1 | 6.75 | 6.11 |  |
| CC1(C)COc2cc(ccn2)-c2ccc3c(c2CC(=O)NS(=O)(=O)c2ccn1n2)CCC3 | 4.80 |  |  |
| CC1(C)COc2cc(ccn2)-c2ccc3c(c2NC(=O)NS(=O)(=O)c2nn1cc2F)CCC3 | 7.77 | 6.77 |  |
| COc1cc(-c2cc(F)cc(C(C)C)c2CC(=O)NS(=O)(=O)c2cnn(C3CC3)c2)ccn1 | 6.27 |  | fraction unbound at 4 h, 5 µM [6]: 0.01; efflux ratio at 2 h, 5 µM [8]: 38; Papp A→B [9]: 0.17 ×10⁻⁶ cm/s; fraction unbound at 4 h, 5 µM [10]: 0.017; half-life [11]: 16.4 h; fraction unbound at 4 h, 5 µM [12]: 0.019; AUC(0-inf) [13]: 1510 ng·h/mL; Papp at 2 h, 5 µM [14]: 5.3 ×10⁻⁶ cm/s; clearance [15]: 11 mL/min/kg; efflux ratio at 2 h, 5 µM [16]: 21; hepatocyte CLint at 100 µM [17]: < 8 µL/min/1e6 cells; efflux ratio [19]: 3.6; logD [3]: 0.9; hepatocyte CLint at 100 µM [20]: < 8 µL/min/1e6 cells; Vd [21]: 13.3 L/kg; microsomal CLint at 1 µM [22]: < 15.4 µL/min/mg; Papp at 2 h, 5 µM [23]: 8.8 ×10⁻⁶ cm/s |
| COc1cc(-c2ccc3c(c2NC(=O)NS(=O)(=O)c2cnn(C(C)C)c2)CCC3)ccn1 | 7.80 | 6.47 | microsomal CLint at 1 µM [25]: 45 µL/min/mg |
| CC(C)c1cccc2c1CC(=O)NS(=O)(=O)c1cn(cn1)C(C)(C)COc1cc-2ccn1 | 6.14 |  |  |
